This note sets out measurements from patent US10925880B2, “Combination of PI3K-inhibitors” (BAYER PHARMA AKTIENGESELLSCHAFT, priority 2016, dated 2021).

pIC50: −log10 of the molar value. Counter-ions that a name gives are not always drawn. Bounds are passed on as bounds.

What all share (format): cell-based
One assay deals with ESKOL. Nature of the assay: 72-hour cell proliferation assay (Cell Titer Glo). The conditions noted are these: ESKOL (MZL), single agent; for pIC50: 72 h. The procedure:
(§1) Combinations of Copanlisib and ABT-199 or Palbociclib in a Panel Cell Lines Assessed by the Combination Index (CI) of a 72-Hour Cell Proliferation Assay The effect of combinations of the present invention was evaluated using combination index isobologram analysis for in vitro assessment. The efficacy parameter was the effect in a 72-hour cell proliferation assay. Briefly, 3000 cells were plated in 384-well plates with appropriate growth medium. […] Cells were treated for 72 hours followed by assessment of cell viability by means of Cell Titer Glo assay (Promega). Experiments were conducted in duplicates. The mapping IC50 values were calculated. The corresponding component concentrations of copanlisib and ABT-199 or Palbociclib were calculated and used for plotting isobolograms. Effects were analyzed as described by Chou (Pharmacology Reviews 2006) and the combination index was calculated using the formula: Combination Index=[Ax]/A′+[Bx]/B′ [Ax] and [Bx] refer to component A and component B. A′ and B′ refer to the IC50 values of A and B, respectively, as a single agent. […] Cis of 0.9-1.1 were defined as additive effect. Cis greater than 1.1 were defined as antagonistic effects.
For orientation: ATP-based viability assays read luminescence as a measure of living cells.

The next assay relates to GRANTA-519. Put plainly: 72-hour cell proliferation assay (Cell Titer Glo). Particulars: GRANTA-519 (MCL), single agent; for pIC50: Homo sapiens, 72 h. The procedure:
as §1

A further assay concerns HAIR-M. Put plainly: 72-hour cell proliferation assay (Cell Titer Glo). Particulars: HAIR-M (MZL), single agent; for pIC50: 72 h. The procedure: as §1
The next assay deals with HC-1. Put plainly: 72-hour cell proliferation assay (Cell Titer Glo). Particulars: HC-1 (MZL), single agent; for pIC50: 72 h. The procedure:
as §1

The next assay deals with JEKO-1. Nature of the assay: 72-hour cell proliferation assay (Cell Titer Glo). The conditions noted are these: JEKO-1 (MCL), single agent; for pIC50: Homo sapiens, 72 h. How it is done:
as §1

Another assay deals with JVM-2. Nature of the assay: 72-hour cell proliferation assay (Cell Titer Glo). The conditions noted are these: JVM-2 (MCL), single agent; for pIC50: Homo sapiens, 72 h. How it is done: as §1
For another assay, the system named is KARPAS-1718. Nature of the assay: 72-hour cell proliferation assay (Cell Titer Glo). Particulars: KARPAS-1718 (SMZL), single agent; for pIC50: 72 h. How it is done: as §1
For a further assay, the system named is MAVER-1. Put plainly: 72-hour cell proliferation assay (Cell Titer Glo). Particulars: MAVER-1 (MCL), single agent; for pIC50: Homo sapiens, Maver1, 72 h. The procedure: as §1
The test system of another assay is MINO. Put plainly: 72-hour cell proliferation assay (Cell Titer Glo). The conditions noted are these: MINO (MCL), single agent; for pIC50: Homo sapiens, 72 h. How it is done: as §1
In a further assay the test system is REC-1. Nature of the assay: 72-hour cell proliferation assay (Cell Titer Glo). Particulars: REC-1 (MCL), single agent; for pIC50: Homo sapiens, Rec1, 72 h. The procedure: as §1
Another assay relates to SP-49. Nature of the assay: 72-hour cell proliferation assay (Cell Titer Glo). Particulars: SP-49 (MCL), single agent; for pIC50: 72 h. How it is done: as §1
The next assay has as its system SP-53. Nature of the assay: 72-hour cell proliferation assay (Cell Titer Glo). Particulars: SP-53 (MCL), single agent; for pIC50: 72 h. How it is done: as §1
The next assay deals with SSK41. Put plainly: 72-hour cell proliferation assay (Cell Titer Glo). The conditions noted are these: SSK41 (SMZL), single agent; for pIC50: 72 h. The procedure:
as §1

A further assay relates to UPN1. Put plainly: 72-hour cell proliferation assay (Cell Titer Glo). Particulars: single agent; for pIC50: UPN1 (MCL), 72 h. How it is done: as §1
For another assay, the system named is VL51. Put plainly: 72-hour cell proliferation assay (Cell Titer Glo). Particulars: VL51 (SMZL), single agent; for pIC50: Homo sapiens, 72 h. The procedure:
as §1

In the next assay the test system is Z-138. Put plainly: 72-hour cell proliferation assay (Cell Titer Glo). The conditions noted are these: Z-138 (MCL), single agent; for pIC50: Homo sapiens, 72 h. The procedure: as §1
For assay [1], the system named is Mantle Cell Lymphoma (MCL), Marginal zone lymphoma (MZL) and Splenic marginal zone lymphoma (SMZL) cell lines. Nature of the assay: 72-hour cell proliferation assay, summary over the cell line panel. Particulars: ten MCL, three MZL and three SMZL cell lines, range over panel. The procedure:
as §1

In the case of `COc1c(OCCCN2CCOCC2)ccc2c1N=C(NC(=O)c1cnc(N)nc1)N1CCN=C21` [copanlisib, 2-amino-N—[7-methoxy-8-(3-morpholin-4-ylpropoxy)-2,3-dihydroimidazo[1,2-c]quinazolin-5-yl]pyrimidine-5-carboxamide dihydrochloride], the monotherapy anti-proliferative activity entry in the assay with ESKOL was “strong”; in the assay on GRANTA-519, “moderate”; with HAIR-M it was “very strong”; in the assay with HC-1, “moderate”; with JEKO-1, “strong”; with JVM-2, “strong”. In addition, the monotherapy anti-proliferative activity entry is “strong” with KARPAS-1718; “moderate” in the assay on MAVER-1; “moderate” with MINO; “very strong” in the assay with REC-1; “very strong” in the assay on SP-49; “very strong” in the assay on SP-53. For the same molecule, the monotherapy anti-proliferative activity entry with SSK41 is recorded as “strong”; in the assay on UPN1 (UPN-1 (MCL)), “strong”; in the assay on VL51, “strong”; in the assay with Z-138, “strong”; in [1] it was “very strong to moderate”. In addition, the pIC50 (usually the negative decadic logarithm of the IC50, by convention in mol/L) in the assay on ESKOL was 7.01; with GRANTA-519, 6.95; with HAIR-M it was 8.27; with HC-1, 6.74; in the assay with JEKO-1 it was 7.39; with JVM-2, 7.66. The pIC50 with KARPAS-1718 was 7.82; with MAVER-1, 6.98; in the assay on MINO, 6.99; with REC-1, 8.22; in the assay with SP-49 it was 8.60; with SP-53, 8.84. Moreover, the pIC50 with SSK41 was 7.29; with UPN1 it was 7.82; in the assay with VL51 it was 7.68; in the assay with Z-138, 7.69.
On to `CC1(C)CCC(CN2CCN(c3ccc(C(=O)NS(=O)(=O)c4ccc(NCC5CCOCC5)c([N+](=O)[O-])c4)c(Oc4cnc5[nH]ccc5c4)c3)CC2)=C(c2ccc(Cl)cc2)C1` [venetoclax, reference compound], for which the pIC50 was ≤ 5.00 with ESKOL; 7.75 with GRANTA-519; 6.59 in the assay with HAIR-M; ≤ 5.00 in the assay with HC-1; 5.46 in the assay with JEKO-1; 5.24 with JVM-2. The pIC50 in the assay with KARPAS-1718 was 8.43; with MAVER-1, 8.73; in the assay with MINO, 8.89; in the assay with REC-1 it was 7.69; in the assay on SP-49 it was 5.76; with SP-53, ≤ 5.00. The pIC50 is 5.21 in the assay with SSK41, ≤ 5.00 in the assay with UPN1, 5.83 in the assay with VL51 and 6.00 in the assay with Z-138.
In the case of `CC(=O)c1c(C)c2cnc(Nc3ccc(N4CCNCC4)cn3)nc2n(C2CCCC2)c1=O` [palbociclib, reference compound], the pIC50 with ESKOL was 5.68; in the assay with GRANTA-519 it was ≤ 5.00; in the assay on HAIR-M it was 5.81; in the assay with HC-1, 5.64; in the assay with JEKO-1, 6.39; in the assay with JVM-2, 5.25. Also, the pIC50 with KARPAS-1718 is 5.12; in the assay on MAVER-1 it was 6.33; with MINO, 6.24; with REC-1, 5.33; in the assay with SP-49, 6.69; in the assay with SP-53, 7.02. In addition, the pIC50 with SSK41 is 5.64; with UPN1, 5.47; in the assay with VL51, ≤ 5.00; in the assay with Z-138, 5.89.
